Patent US6773896B2, “Method for direct measurement of coagulation factor VIIa activity in plasma” (Warner-Lambert Company, priority 2001, dated 2004)
One block for each compound: values may come before it.

Tests used:
[1] = Plasma level in hypercholesterolemic rabbits calculated from FVIIa activity; type: in vivo, rabbit; settings: IV bolus 0.3 and 1.0 mg/kg, 3 minutes after administration
Description: (§1) The FVIIa activity was measured in plasma collected from hypercholesterolemic rabbits in a balloon-induced injury model of thrombosis. The rabbits received two doses of 7-[(R)-3-(3-Amino-benzyl)-4-(4-amino-phenyl)-4-methyl-2,5-dioxo-imidazolidin-1-ylmethyl]-naphthalene-2-carboxamidine, IV bolus, 0.3 mg/kg (n=5) and 1.0 mg/kg (n=6). Blood samples were collected before and 3 minutes after administration, followed by plasma preparation. Plasma samples were extracted using CH3CN and reconstituted in Tris-buffer. The protocol is the same as ex vivo study of 2-[6-(3-Carbamimidoyl-phenoxy)-3,5-difluoro-4-(1-methyl-3-phenyl-propylamino)-pyridin-2-yloxy]-5-dimethylamino-4-methyl-benzoic acid. The plasma levels of 7-[(R)-3-(3-Amino-benzyl)-4-(4-amino-phenyl)-4-methyl-2,5-dioxo-imidazolidin-1-ylmethyl]-naphthalene-2-carboxamidine were calculated based on the test plasma FVIIa activity and an IC50 standard curve. […]
(§2) The inhibitory effect and plasma concentration of 7-[(R)-3-(3-Amino-benzyl)-4-(4-amino-phenyl)-4-methyl-2,5-dioxo-imidazolidin-1-ylmethyl]-naphthalene-2-carboxamidine was determined in balloon-induced injury model of thrombosis in hypercholesterolemic rabbits. […] The inhibitory effect of 7-[(R)-3-(3-Amino-benzyl)-4-(4-amino-phenyl)-4-methyl-2,5-dioxo-imidazolidin-1-ylmethyl]-naphthalene-2-carboxamidine was measured by FVIIa activity assay. […]

FVIIa [2] = target: T1, FVIIa (Homo sapiens, UniProt P08709); experiment: Ex vivo FVIIa activity assay in plasma of hypercholesterolemic rabbits (balloon-induced injury model of thrombosis); set-up: species or system rabbit; settings: IV bolus 0.3 and 1.0 mg/kg, 3 minutes after administration
T1 construct: purchased American Diagnostica, Greenwich, Conn
Description: as §1, §2

FVIIa [3] = target: T1, FVIIa; experiment: Ex vivo FVIIa activity assay in plasma from treated rabbits, two plasma concentrations; settings: rabbit, 3 mg/kg IV bolus
Description: (§3) The FVIIa activity was measured in the plasma collected from rabbits that received 2-[6-(3-Carbamimidoyl-phenoxy)-3,5-difluoro-4-(1-methyl-3-phenyl-propylamino)-pyridin-2-yloxy]-5-dimethylamino-4-methyl-benzoic acid, IV bolus, 3 mg/kg (n=3). Blood samples were collected before and 1, 5, 10, 30, and 60 minutes after the onset of administration, followed by plasma preparation. 2-[6-(3-Carbamimidoyl-phenoxy)-3,5-difluoro-4-(1-methyl-3-phenyl-propylamino)-pyridin-2-yloxy]-5-dimethylamino-4-methyl-benzoic acid in plasma was extracted using 4 volumes of CH3CN to 1 volume of plasma. Precipitated proteins were removed by centrifugation at 2000 g for 5 minutes. Solvent was decanted into small glass tubes and dried at 37° C. under a stream of nitrogen, then reconstituted in Tris-buffer. The method of FVIIa activity assay is the same as in vitro study. FVIIa activity was determined by measuring the rate of absorbance change at 405 nm due to cleavage of the spectrozyme FVIIa (0.5 mM) by FVIIa/TF complex. Plasma concentrations of 2-[6-(3-Carbamimidoyl-phenoxy)-3,5-difluoro-4-(1-methyl-3-phenyl-propylamino)-pyridin-2-yloxy]-5-dimethylamino-4-methyl-benzo acid were determined by using a standards inhibition curve that were generated from rabbit plasma containing known amount of inhibitor and processed identically to test samples. […]

[4] = Ex vivo study in rabbit plasma: plasma concentration calculated from FVIIa activity; settings: 3 mg/kg IV bolus, 1-60 min, n=3, calculated from FVIIa activity and IC50 standard curve
Description: as §3

human FVIIa = target: T2, human FVIIa (Homo sapiens, UniProt P08709); experiment: Inhibition of human FVIIa (stated potency); type: biochemical; settings: read-out: IC50 against human FVIIa
T2 sequence (P08709 213-466 limits assumed): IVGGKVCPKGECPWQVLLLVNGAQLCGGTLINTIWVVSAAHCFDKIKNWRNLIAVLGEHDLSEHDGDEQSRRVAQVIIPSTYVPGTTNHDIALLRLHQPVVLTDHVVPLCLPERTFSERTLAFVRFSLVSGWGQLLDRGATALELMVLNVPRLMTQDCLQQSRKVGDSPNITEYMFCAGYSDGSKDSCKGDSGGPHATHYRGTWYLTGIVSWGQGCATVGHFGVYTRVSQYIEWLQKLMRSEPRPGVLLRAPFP
T2 sequence (P08709 61-212 partner limits assumed): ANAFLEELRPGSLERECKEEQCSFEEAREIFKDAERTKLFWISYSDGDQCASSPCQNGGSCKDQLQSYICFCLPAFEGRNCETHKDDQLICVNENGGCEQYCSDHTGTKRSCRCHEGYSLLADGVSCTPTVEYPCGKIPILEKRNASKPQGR

FVIIa/TF complex = target: T3, FVIIa/TF complex (Homo sapiens, UniProt P08709); experiment: In vitro one-stage FVIIa activity assay in human plasma (Spectrozyme FVIIa cleavage); type: biochemical; settings: for Effect on FVIIa activity in human plasma: 0.625% pooled human plasma, 10 nM FVIIa, 15 nM TF, vs own control
T3 construct: purchased American Diagnostica, Greenwich, Conn
Description: The proteolytic activity of FVIIa was measured by cleavage of paranitroanilide (pNA) substrate (Spectrozyme FVIIa) in a 96-well microtiter plate.
A series of samples containing enzyme inhibitors (0-300 μM) were added to well in a 96-well microtiter plate containing Tris-buffer ([…] Tris, pH 7.4, 100 mM NaCl), 0.625% plasma, 0.1% BSA. After addition of FVIIa (10 nM in final concentration), the plate was incubated for 15 minutes at 37° C. Then the TF (15 nM in final concentration) and CaCl2 (5 mM in final concentration) were added, and the plate was incubated for additional 15 minutes at 37° C. again. After incubation, the substrate (Spectrozyme FVIIa) was added at a final concentration of 0.5 mM to result in a final volume of 200 μL/well. The rate of change in absorbance at 405 nm was monitored by a Softmax plate reader (Molecular Devices).
Above four inhibitors were evaluated in pooled human plasma for their inhibitory effects on FVIIa activity. Effects of FVIIai, 2-[6-(3-Carbamimidoyl-phenoxy)-3,5-difluoro-4-(1-methyl-3-phenyl-propylamino)-pyridin-2-yloxy]-5-dimethylamino-4-methyl-benzoic acid, ({2-(5-Carbamimidoyl-2-hydroxy-phenoxy)-3,5-difluoro-6-[3-(1-methyl-4,5-dihydro-1H-imidazol-2-yl)-phenoxy]-pyridin-4-yl}-methyl-amino)-acetic acid, and (S)-4-[3-(cyclopentylmethylamino)-2-[(2-naphthalenylsulfony)amino]-3-oxopropyl]benzenecarboximidic acid hydrazide on FVIIa activity were compared with their own control group. The activity of FVIIa was obtained with a final concentration of 0.625% human plasma, 10 nM FVIIa, 15 nM TF, 5 mM CaCl2, and 0.5 mM SPZFVIIa.

thrombin = thrombin (Homo sapiens, UniProt P00734); experiment: Inhibition of thrombin (stated potency); type: biochemical

T3 sequence (P13726 33-295 partner, one chain of several): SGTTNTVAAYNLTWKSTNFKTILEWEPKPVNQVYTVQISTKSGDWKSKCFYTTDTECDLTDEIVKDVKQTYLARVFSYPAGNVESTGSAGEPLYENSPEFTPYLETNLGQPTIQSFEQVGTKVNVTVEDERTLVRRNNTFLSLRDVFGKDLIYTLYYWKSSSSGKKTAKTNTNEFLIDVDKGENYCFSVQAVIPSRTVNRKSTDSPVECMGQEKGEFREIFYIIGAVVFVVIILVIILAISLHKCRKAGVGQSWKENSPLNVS
T1 sequence (P13726 33-295 partner, one chain of several): as above

Plasma level [1]: dose-dependent changes
SMILES: C[C@@]1(c2ccc(N)cc2)C(=O)N(Cc2ccc3ccc(C(=N)N)cc3c2)C(=O)N1Cc1cccc(N)c1 [7-[(R)-3-(3-Amino-benzyl)-4-(4-amino-phenyl)-4-methyl-2,5-dioxo-imidazolidin-1-ylmethyl]-naphthalene-2 carboxamidine]
Ex vivo inhibitory effect on FVIIa activity (FVIIa [2]): dose-dependent changes in inhibitory effect

Ex vivo inhibitory effect on FVIIa activity with 1.25% vs 0.625% plasma in the assay (FVIIa [3]): same inhibitory effect
IC50 (human FVIIa): 15 nM
Effect on FVIIa activity in human plasma (FVIIa/TF complex; 300 nM): significantly decreased FVIIa activity
Inhibition on FVIIa activity in human plasma over a series of concentrations (FVIIa/TF complex; human plasma, series of concentrations): dose-dependent inhibition
SMILES: Cc1cc(Oc2nc(Oc3cccc(C(=N)N)c3)c(F)c(NC(C)CCc3ccccc3)c2F)c(C(=O)O)cc1N(C)C (centres unmarked) [2-[6-(3-Carbamimidoyl-phenoxy)-3,5-difluoro-4-(1-methyl-3-phenyl-propylamino)-pyridin-2-yloxy]-5-dimethylamino-4-methyl-benzoic acid]
Plasma concentration after IV bolus administration [4]: time-dependent change in plasma concentration

Effect on FVIIa activity in human plasma (FVIIa/TF complex; 100 nM): did not alter FVIIa activity
SMILES: CN1CCN=C1c1cccc(Oc2nc(Oc3cc(C(=N)N)ccc3O)c(F)c(N(C)CC(=O)O)c2F)c1 [({2-(5-Carbamimidoyl-2-hydroxy-phenoxy)-3,5-difluoro-6-[3-(1-methyl-4,5-dihydro-1H-imidazol-2-yl)-phenoxy]-pyridin-4-yl}-methyl-amino)-acetic acid]

Effect on FVIIa activity in human plasma (FVIIa/TF complex; 100 nM): did not alter FVIIa activity
IC50 (thrombin; read-out: IC50 against thrombin): 2 nM
Ki (thrombin; read-out: Ki against thrombin): 0.38 nM
SMILES: N=C(NN)c1ccc(C[C@H](NS(=O)(=O)c2ccc3ccccc3c2)C(=O)NCC2CCCC2)cc1 [(S)-4-[3-(cyclopentylmethylamino)-2-[(2-naphthalenylsulfonyl)amino]-3-oxoprpoyl]-benzenecarboximidic acid hydrazide]
